Like-named read-outs stand apart in the source and are kept apart here.
Experiments:
[1] = earlier studies, no reference given; cited from earlier work
[2] = system: T-98 (Temozolomide resistant) Glioma cell lines; assay: Sulforhodamine B assay, T-98 TMZ resistant Glioma cells; format: cell-based; conditions: for IC50: Glioma cell; for T-98/TMZRES SI: SI = CC50 of Vero cell line /IC50 of Cancer cell line after 72 h
Protocol: In order to test the growth inhibition potential of the TMZ and Acridone derivatives on Glioma, the U-87 (Uppsala 87) Glioma cell lines and T-98 (Temozolomide resistant) Glioma cell lines were treated with Temozolomide (TMZ) and Acridone derivatives AC2, AC7, and AC26. The African Green Monkey Kidney Vero cell lines were used as control for the study. The Vero cell lines were obtained from the National Center for Cell Sciences (NCCS), Pune, while the U-87 and T-98 cell lines were carried in the lab of Dr. GJ Peters, Cancer Center Amsterdam (CCA), VU University Medical Center, Amsterdam, Netherlands. The Mycoplasma testing was done by using the Universal Mycoplasma Detection Kit (ATCC® 30-1012K™) every 6 months. The Vero cell lines have been used as control as they are normal kidney epithelial cells and are non-cancerous in nature. The Vero cell lines have been routinely used for testing cytotoxicity of small molecules by various researchers ([22], [23]). Also, in our previous study, Vero cell lines have been used for testing safety and efficacy of Acridone derivatives for Lung, Cervical, and Breast Cancer studies ([13]).
Cell viability was found using the Sulforhodamine B (SRB) assay to measure the cellular protein content which provides better sensitivity in comparison to MTT assay ([24]). Moreover, as this method is dependent on the property of the SRB dye, it acts by binding to proteins under slightly acidic conditions and can be exposed to basic conditions for its extraction. The resulting amount of bound dye is then utilized as a proxy for cell mass ([25]). This cell mass can then be extrapolated to measure cell growth.
Glioma cells were cultured in Gibco (RPMI 1640) complemented with 10% fetal calf serum (Gibco). The cultures were then treated with trypsin-EDTA in order to detach/separate the cells from their culture flasks. The quickly proliferating cells were harvested, counted and plated at suitable concentrations in 96-well microplates. These microplates were subsequently incubated for 24 h. After incubation, drug compounds were dissolved in the culture media and placed in 96 well plates in triplicates, which were again incubated at 37°C under 5% CO2 for 72 h. 72 h later, the plates were removed and the cells were treated with cold Trichloroacetic acid (TCA) to fix the cultures and. 0.4% of SRB dissolved in 1% acetic acid was then added to the culture in order to stain the cells. Next, the bound stain was dissolved in 150 μl of 10 mM unbuffered Tris base left on a gyrator shaker. Thereafter, absorbance of the solution was measured at 540 nm utilizing a microplate reader. Absorbance readings (triplicate values) recorded were used to calculate percentage growth inhibition due to the effect of drugs using the following equations.
% Cell growth = Absorbance sample/Absorbance of control or untreated × 100
% Growth inhibition = 100 - % cell growth
The IC50 was calculated based on the log graph sheet which was developed in-house at the CCA, VU University Medical Center.
Selectivity Index (SI) is a ratio that measures the window between cytotoxicity and anticancer activity of the drugs ([26]). […] Here, IC50 is the inhibition concentration for inhibiting 50% of cancer cells and CC50 is cytotoxic concentration causing death of 50% viable cells in the host.

[3] = system: Drug resistant cancer cells (CR), T-98; assay: Mathematical tumor growth model simulation and Bliss synergy, drug resistant cancer cells
[4] = 72 h, SRB, Mean ± Standard Deviations in Table 4, read-out: T-98/TMZRES IC50
[5] = drug administered individually, drug resistant cells, read-out: Initial IC50

## O=C(NN=Cc1ccccc1Cl)c1cccc2c(=O)c3ccccc3[nH]c12 [AC7, N'-(2-chlorobenzylidene)-9-oxo-9,10-dihydroacridine-4-carbohydrazide]
[1]
  cardiotoxicity, nephrotoxicity and necrosis: no cardiotoxicity, nephrotoxicity and necrosis
  liver histopathology: minimal hyperchromatic, anaplasia, and cellular infiltration
[2]; [4]
  IC50: 1050 ± 180 nM
[2]; [5]
  IC50: 1050 nM
[2]
  T-98/TMZRES SI: 45.87
[3]; combination TMZ + AC7
  % fold change [(final-initial)/initial]*100: 8.5%
  Fold change = final IC50/initial IC50: 0.91

## CC(=NNC(=O)c1cccc2c(=O)c3ccccc3[nH]c12)c1ccccc1O [AC26, N'(1-(2-hydroxyphenyl)ethylidene)-9-oxo-9,10-dihydroacridine-4-carbohydrazide]
[1]
  cardiotoxicity, nephrotoxicity and necrosis: no cardiotoxicity, nephrotoxicity and necrosis
  liver histopathology: minimal hyperchromatic, anaplasia, and cellular infiltration
[2]; [4]
  IC50: 760 ± 53 nM
[2]; [5]
  IC50: 760 nM
[2]
  T-98/TMZRES SI: 86.94
[3]; combination TMZ + AC26
  Fold change = final IC50/initial IC50: 0.88

## O=C(NN=CC=Cc1ccccc1)c1cccc2c(=O)c3ccccc3[nH]c12 [AC2, 9-oxo-N'-(3-phenylallylidene)-9,10-dihydroacridine-4-carbohydrazide]
[1]
  cardiotoxicity, nephrotoxicity and necrosis: no cardiotoxicity, nephrotoxicity and necrosis
  liver histopathology: minimal hyperchromatic, anaplasia, and cellular infiltration
[2]; [4]
  IC50: 1530 ± 250 nM
[2]; [5]
  IC50: 1530 nM
[2]
  T-98/TMZRES SI: 36.73
[3]; combination TMZ + AC2
  % fold change [(final-initial)/initial]*100: 3.26%
  Fold change = final IC50/initial IC50: 0.96
